According to patent US20180235917A1, “COMPOSITIONS, METHODS AND KITS FOR TREATMENT OF DIABETES AND/OR […]” (NuSirt Sciences, Inc., priority 2014, published 2018):

Key:
3T3-L1 adipocytes = assay: Fatty acid oxidation (palmitate-induced O2 consumption, Seahorse XF24) in adipocytes; format: cell-based, mouse; conditions: 24-hour Met-Leu treatment
C2C12 myotubes [1] = assay: Glucose utilization (extracellular acidification response to glucose) in myotubes; format: cell-based, mouse
C2C12 myotubes [2] = conditions: Mooney et al. 2008; cited from earlier work
[3] = system: adipocytes (3T3-L1) and myotubes (C2C12); assay: Glucose utilization (extracellular acidification), cell type not stated; format: cell-based, mouse; conditions: compound alone
Protocol: In the absence of a fatty acid source and oxidative metabolism, glycolysis and subsequent lactate production results in extracellular acidification, which was also measured using a Seahorse Bioscience XF24 analyzer. Cells were prepared and equilibrated similar to the methods described above for fatty acid oxidation, with the exclusion of carnitine from the medium. Following instrument equilibration and three baseline measurements, glucose was injected to a final concentration of 10 mM in each well. Measurements were taken as described above utilizing the sensors for extracellular acidification rather than O2 consumption. Insulin (final concentration of 5 nM) was added to some wells as a positive control. Data for each sample were normalized to the pre-glucose injection baseline for that sample and expressed as % change from that baseline. The area under of the curve of extracellular acidification change from baseline for each sample was then calculated and used for subsequent analysis.
In the absence of a fatty acid source and oxidative metabolism, glycolysis and subsequent lactate production results in extracellular acidification, which was also measured using a Seahorse Bioscience XF24 analyzer. […] Data for each sample were normalized to the pre-glucose injection baseline for that sample and expressed as % change from that baseline. […]

[4] = system: LDL receptor knockout mice; assay: LDL receptor knockout mice on western diet: plasma lipids, atherosclerosis, macrophage infiltration (Example 7); format: in vivo, mouse
From the text: LDL receptor knockout (LDLRKO) mice were obtained from Jackson Laboratories (Bar Harbor, Me.), and housed in groups under room temperature in a humidity-controlled environment with a regular light and dark cycle. The mice were provided free access to an atherogenic western diet (WD) containing 0.21% cholesterol (by weight) and 40% calories from fat and water for 4 weeks prior to treatment. For treatment, the mice were given (a) the WD diet alone, (b) WD and 24 g of leucine/kg diet, (c) WD and 24 g of leucine/kg diet and 50 mg nicotinic acid/kg diet, (d) WD and 24 g of leucine/kg diet and 250 mg nicotinic acid/kg diet, or (e) WD and 1000 mg nicotinic acid/kg diet; this is approximately equivalent to a low therapeutic dose of nicotinic acid in hypercholesterolemic humans (˜1,500 mg/day). The treatments were administered for eight weeks continuously.
Blood samples of the mice in all groups were obtained from tails of the mice at following four and eight weeks of administration. The serum/plasma levels of triglyceride, total cholesterol and cholesterol esters were measured. Following treatment, food was removed for four hours and the animals were euthanized.
Blood was collected into EDTA-coated tubes to analyze plasma lipid and cholesterol profiles. Plasma total cholesterol (TC, Pointe Scientific, Canton, Mich.), free cholesterol (FC, Wako, Richmond, Va.) and triglyceride (TG, Wako, Richmond, Va.) concentrations were measured using enzymatic assays according to manufacturer's instructions. Cholesterol ester (CE) was calculated as the difference between TC and FC.
To assess atherosclerosis, the circulatory system was perfused following euthanasia with phosphate-buffered saline (PBS) before removing the heart and aorta. The upper one-third of the heart was dissected and embedded in Optimal Cutting Temperature Compound (Sakura Tissue-Tek, Torrance, Calif.), frozen, and stored at −80° C. Blocks were serially cut at 8 μm intervals and stained with hematoxylin and 0.5% Oil Red O (Sigma-Aldrich) to evaluate aortic sinus atherosclerotic intimal area. Atherosclerotic lesion area and Oil Red O positive area were quantified using Image-Pro Plus software (Media Cybernetics, Bethesda, Md.). Whole aorta (from sinotubular junction to iliac bifurcate) was dissected and fixed in 10% formalin, and the adventitia was cleaned. Aortas were opened along the longitudinal axis and pinned onto black silicon elastomer (Rubber-Cal, Santa Ana, Calif.) for the quantification of atherosclerotic lesion area. The percentage of total aortic surface covered with atherosclerotic lesions was quantified by Image-Pro Plus software (Media Cybernetics, Bethesda, Md.) and used to determine the total lesion area.
To assess macrophage infiltration, Sections of aortic sinus were immuno-stained with rat monoclonal antibody against macrophage-specific CD68 (Clone FA11, 1:75, AbD Serotec, Raleigh, N.C.) followed by staining with alkaline phosphatase-conjugated mouse anti-rat (for CD68, 1:50) secondary antibodies (Jackson ImmunoResearch laboratories, West Grove, Pa.). Control slides contain no primary antibody. The CD68-positive areas were analyzed using Image-Pro Plus software (Media Cybernetics, Bethesda, Md.).

[5] = system: LDL receptor knockout (LDLRKO) mice; assay: Planned study in LDL receptor knockout mice with leucine/metformin/nicotinic acid (Example 13); format: in vivo, mouse
AMPK = conditions: 3T3-L1 adipocytes
[6] = system: patients pre-diagnosed with hyperlipidemia; assay: Planned study in hyperlipidemic patients: lipids and cutaneous vasodilation (Example 8); format: in vivo, human; conditions: for triglyceride, LDL, cholesterol and HDL levels compared to day 0: oral twice a day, 60 days
Protocol: Patients that are pre-diagnosed with hyperlipidemia are admitted for the randomized and double blind study. […] The treatments are administered orally twice a day, for 60 days continuously. […] The serum/plasma levels of triglyceride, cholesterol, LDL and HDL are measured. Cutaneous vasodilation is measured by laser-Doppler flowmeter and the discomfort level described by the patients.

Caenorhabditis elegans = assay: Lifespan of C. elegans (Example 10); format: in vivo; conditions: basal conditions; leucine 0.5 mM, nicotinic acid 10 nM
Protocol: Eggs were hatched on a starved plate overnight. […] All treatments were added with the indicated concentrations to E. coli the agar plates. […] The worms were maintained at 20° C. throughout the duration of the study. Worms were transferred to new plates daily to eliminate progeny. […] The study was continued until the last animal was dead. Data were analyzed via Kaplan-Meier survival curves using Prism 6 (GraphPad Software) and statistical significance was determined by the Log-rank (Mantel-Cox) test.

[7] = system: patients pre-diagnosed with hyperlipidemia; assay: Planned study in patients: atherosclerotic plaque size by quantitative coronary angiography (Example 9); format: in vivo, human; conditions: oral twice a day, 3 years; nicotinic acid 50 mg, leucine 550 mg, resveratrol 50 mg
Protocol: Patients that experience acute chest pain and are pre-diagnosed with hyperlipidemia are admitted for the randomized and double blind study. […] The treatments are administered orally twice a day, for 3 years continuously. The size of atherosclerotic plaque is measured at day 0, months 6, 12, 18, 24, 30 and 36 by quantitative coronary angiography.

[8] = system: LDL receptor knockout (Ldlr−/−) mice; assay: Ldlr−/− mice on atherogenic diet with leucine/metformin/nicotinic acid (Example 15); format: in vivo, Mus musculus
Sirt1 = conditions: C2C12 myotubes
[9] = 24 hours, nicotinic acid 10 nM, leucine 0.5 mM, resveratrol 200 nM
[10] = nicotinic acid 50 mg, leucine 550 mg, resveratrol 50 mg

With c1cc(-c2cnn3cc(-c4ccc(OCCN5CCCCC5)cc4)cnc23)ccn1 [Compound C] the “effect of the AMPK inhibitor on the Met-Leu increase in palmitate-induced fatty acid oxidation” value (3T3-L1 adipocytes) was “completely blocked this increase”.

For CC(C)=CCN=C(N)N [galegine], the “increase in insulin-stimulated glucose utilization” value (C2C12 myotubes [1]; C2C12 myotubes, 5 nM insulin, galegine 5 μM, leucine 0.5 mM) is listed as “no effect”, the “concentrations with no independent effect on basal or insulin-stimulated glucose utilization (dose response curves)” value (C2C12 myotubes [1]; galegine alone) is listed as “up to 500 μM” and the “concentration below which published literature shows no effect” value (C2C12 myotubes [2]) is listed as under 100 µM.

In the case of N=C(N)N [Guanidine], the “no-effect threshold for stimulation of glucose utilization” value [3] is reported as 0.1 to 1 µM.

For O=C(O)c1cccnc1 [nicotinic acid], the “decrease in aortic macrophage infiltration (CD68 positive area)” value ([4]; eight weeks, doses as E77) was about 50%, the “decrease in atherosclerotic lesion size (lesion and lipid area)” value ([4]; eight weeks, nicotinic acid 1,000 mg/kg diet, leucine 24 g/kg diet, or leucine + nicotinic acid 50 mg/kg diet, vs western diet alone) was about 50% and the “decrease in plasma cholesterol esters” value ([4]; four weeks, doses as E73) was 28%. For the same molecule, the “decrease in plasma triglycerides” value ([4]; four weeks, doses as E73) was 32%, the “decrease in plasma total cholesterol” value ([4]; four weeks, western diet + nicotinic acid 1,000 mg/kg diet, leucine 24 g/kg diet, or leucine + nicotinic acid 50 or 250 mg/kg diet) was 20% and the “plasma insulin and HOMAIR index” value ([5]; diet doses: metformin 1.5 g/kg alone or 0.25 g/kg in combinations, nicotinic acid 1000 mg/kg alone or 50 mg/kg in combinations, leucine 24 g/kg) was “high plasma insulin and HOMAIR index”. For the same molecule, the “atherosclerotic lesion size and aortic macrophage infiltration relative to western diet alone” value ([5]; doses as E112) was “decrease atherosclerotic lesion size and decrease in aortic macrophage infiltration”, the “concentrations that alone exert no effect (dose-response study)” value (AMPK) was under 100 nM and the “AMPK activation (P-AMPK/AMPK)” value (AMPK; [9]) was “no significant effect”. The “cutaneous vasodilation compared to 1500 mg nicotinic acid” value [6, 10] was “lower”, the “cutaneous vasodilation compared to all other groups” value ([6]; nicotinic acid 1500 mg alone) was “significant higher cutaneous vasodilation” and the “triglyceride, LDL, cholesterol and HDL levels compared to day 0” value [6, 10] was “similar, without statistically significant difference”. The “triglyceride, LDL, cholesterol and HDL levels compared to day 0” value ([6]; nicotinic acid 1500 mg alone) was “significantly lower triglyceride, LDL and cholesterol levels, and significantly higher HDL level”, the effect on lifespan (Caenorhabditis elegans) was “no independent effect” and the “size of atherosclerotic plaque compared to day 0” value [7] was “similar, without statistically significant difference”. For the same molecule, the fasting blood glucose ([8]; 8 weeks, nicotinic acid 1000 mg/kg diet, or leucine 24 g/kg + metformin 0.5 g/kg + nicotinic acid 50 mg/kg diet, vs atherogenic diet) was “no change”, the “plasma LDL cholesterol” value ([8]; Day 56, doses as E126) was “significantly lower” and the plasma cholesterol ([8]; Day 56, doses as E126) was “significantly lower”. For the same molecule, the plasma triglycerides ([8]; Day 56, doses as E126) was “significantly lower”, the “Oil Red O staining area in the heart and aorta” value ([8]; doses as E126) was “significantly less Oil Red O staining area” and the “atherosclerosis (histological images of heart)” value ([8]; doses as E126) was “reduced”. For the same molecule, the fasting plasma insulin ([8]; doses as E126) was “no change”, the “concentrations that alone exert no effect (dose-response study)” value (Sirt1) was under 100 nM and the “increase in Sirt1 levels” value (Sirt1; [9]) was “did not have a significant effect”.
